Experimental data: article PMC11191095, “QSAR Reveals Decreased Lipophilicity of Polar Residues Determines the Selectivity of Antimicrobial Peptide Activity” (ACS Omega, 2024)
Where a SMILES comes first, the peptide text is derived from it.

Assays:
Assay in all cases: microbe, parasite or virus in culture
E. coli LEC001 = format: cell-based, Escherichia coli; settings: E. coli LEC001 (R)
Summary of the method: (§1)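 Peptides 128→2 μg/mL, 2-fold series; inoculum ~5 × 10^5 CFU/mL from overnight culture (OD600 0.01, mixed 1:1). MHB non-cation-adjusted for bacteria, RPMI 1640 + 2% glucose for fungi. 37 °C, 20 h, OD600. MIC50/MIC90 at 50%/90% inhibition; n ≥ 3.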

E. coli NCTC 12923 = format: cell-based, Escherichia coli; settings: E. coli NCTC 12923 (S)
Summary of the method: as §1

P. aeruginosa NCTC 13437 = format: cell-based, Pseudomonas aeruginosa; settings: P. aeruginosa NCTC 13437 (R)
Summary of the method: as §1

A. baumannii ATCC 17978 = format: cell-based, Acinetobacter baumannii; settings: A. baumannii ATCC 17978 (S)
Summary of the method: as §1

A. baumannii AYE = format: cell-based, Acinetobacter baumannii; settings: A. baumannii AYE (R)
Summary of the method: as §1

K. pneumoniae M6 = format: cell-based, Klebsiella pneumoniae; settings: K. pneumoniae M6 (S)
Summary of the method: as §1

K. pneumoniae NCTC 13368 = format: cell-based, Klebsiella pneumoniae; settings: K. pneumoniae NCTC 13368 (R)
Summary of the method: as §1

S. aureus (MRSA) 1199B = format: cell-based, Staphylococcus aureus; settings: S. aureus (MRSA) 1199B (R)
Summary of the method: as §1

[1] = tested on: S. aureus (MRSA) NCTC 13616; format: cell-based, Staphylococcus aureus; settings: S. aureus (MRSA) NCTC 13616 (R)
Summary of the method: as §1

S. aureus (MRSA) USA300 = format: cell-based, Staphylococcus aureus; settings: S. aureus (MRSA) USA300 (R)
Summary of the method: as §1

C. auris TDG 1912 = format: cell-based, Candida auris; settings: C. auris TDG 1912
Summary of the method: as §1

C. albicans NCPF 3281 = format: cell-based; settings: C. albicans NCPF 3281
Summary of the method: as §1

C. glabrata NCPF 8018 = format: cell-based; settings: C. glabrata NCPF 8018
Summary of the method: as §1

C. krusei NCPF 3876 = format: cell-based; settings: C. krusei NCPF 3876
Summary of the method: as §1

[2] = tested on: C. parapsilosis NCPF 3209; format: cell-based; settings: C. parapsilosis NCPF 3209
Summary of the method: as §1

C. tropicalis NCPF 8760 = format: cell-based; settings: C. tropicalis NCPF 8760
Summary of the method: as §1

[3] = MHB, 37 °C, 20 h, OD600, min. three biological repeats
[4] = MHB, ~5×10^5 CFU/mL, 37 °C, 20 h, OD600, min. three biological repeats
[5] = 50% growth inhibition, RPMI 1640 + 2% glucose, 37 °C, 20 h, OD600
[6] = 90% growth inhibition, RPMI 1640 + 2% glucose, 37 °C, 20 h, OD600
[7] = 50% growth inhibition, RPMI 1640 + 2% glucose, 37 °C, 20 h
[8] = 90% growth inhibition, RPMI 1640 + 2% glucose, 37 °C, 20 h

CC(C)C[C@H](NC(=O)[C@H](CCCCN)NC(=O)[C@H](CO)NC(=O)[C@H](CCCCN)NC(=O)[C@@H](N)Cc1c[nH]c2ccccc12)C(=O)N[C@@H](C)C(=O)N[C@@H](CCCCN)C(=O)N[C@@H](CCCCN)C(N)=O [PS-PB-8a] (H-WKSKLAKK-NH2)
> 128 µg/mL: Modal MIC (E. coli LEC001; [3]) | Modal MIC (E. coli NCTC 12923; [4]) | Modal MIC (P. aeruginosa NCTC 13437; [3]) | Modal MIC (A. baumannii ATCC 17978; [3]) | Modal MIC (A. baumannii AYE; [3]) | Modal MIC (K. pneumoniae M6; [3]) | Modal MIC (K. pneumoniae NCTC 13368; [3]) | Modal MIC (S. aureus (MRSA) 1199B; [3]) | Modal MIC [1, 3] | Modal MIC (S. aureus (MRSA) USA300; [3]) | Modal MIC50 (C. auris TDG 1912; [5]) | Modal MIC90 (C. auris TDG 1912; [6]) | Modal MIC50 (C. albicans NCPF 3281; [7]) | Modal MIC90 (C. albicans NCPF 3281; [8]) | Modal MIC50 (C. glabrata NCPF 8018; [7]) | Modal MIC90 (C. glabrata NCPF 8018; [8]) | Modal MIC50 (C. krusei NCPF 3876; [7]) | Modal MIC90 (C. krusei NCPF 3876; [8]) | Modal MIC50 [2, 7] | Modal MIC90 [2, 8] | Modal MIC50 (C. tropicalis NCPF 8760; [7]) | Modal MIC90 (C. tropicalis NCPF 8760; [8])
> 127.2 µM: Modal MIC (E. coli LEC001; shown in µM) | Modal MIC (E. coli NCTC 12923; shown in µM) | Modal MIC (P. aeruginosa NCTC 13437; shown in µM) | Modal MIC (A. baumannii ATCC 17978; shown in µM) | Modal MIC (A. baumannii AYE; shown in µM) | Modal MIC (K. pneumoniae M6; shown in µM) | Modal MIC (K. pneumoniae NCTC 13368; shown in µM) | Modal MIC (S. aureus (MRSA) 1199B; shown in µM) | Modal MIC ([1]; shown in µM) | Modal MIC (S. aureus (MRSA) USA300; shown in µM) | Modal MIC50 (C. auris TDG 1912; shown in µM) | Modal MIC90 (C. auris TDG 1912; shown in µM) | Modal MIC50 (C. albicans NCPF 3281; shown in µM) | Modal MIC90 (C. albicans NCPF 3281; shown in µM) | Modal MIC50 (C. glabrata NCPF 8018; shown in µM) | Modal MIC90 (C. glabrata NCPF 8018; shown in µM) | Modal MIC50 (C. krusei NCPF 3876; shown in µM) | Modal MIC90 (C. krusei NCPF 3876; shown in µM) | Modal MIC50 ([2]; shown in µM) | Modal MIC90 ([2]; shown in µM) | Modal MIC50 (C. tropicalis NCPF 8760; shown in µM) | Modal MIC90 (C. tropicalis NCPF 8760; shown in µM)

CC(C)C[C@H](NC(=O)[C@H](CCCCN)NC(=O)[C@H](CO)NC(=O)[C@H](CCCCN)NC(=O)[C@H](Cc1c[nH]c2ccccc12)NC(=O)[C@H](C)NC(=O)[C@H](CCCCN)NC(=O)[C@@H](N)CCCCN)C(=O)N[C@@H](C)C(=O)N[C@@H](CCCCN)C(=O)N[C@@H](CCCCN)C(=O)N[C@@H](CC(C)C)C(=O)N[C@@H](CCCNC(=N)N)C(=O)N[C@@H](C)C(=O)N[C@@H](CCCCN)C(=O)NCC(=O)N[C@@H](CCCCN)C(N)=O [PS-PB-14a] (H-KKAWKSKLAKKLRAKGK-NH2)
31.9 µM: Modal MIC50 (C. tropicalis NCPF 8760; shown in µM) | Modal MIC90 (C. tropicalis NCPF 8760; shown in µM)
> 128 µg/mL: Modal MIC (E. coli LEC001; [3]) | Modal MIC (E. coli NCTC 12923; [4]) | Modal MIC (P. aeruginosa NCTC 13437; [3]) | Modal MIC (A. baumannii ATCC 17978; [3]) | Modal MIC (A. baumannii AYE; [3]) | Modal MIC (K. pneumoniae M6; [3]) | Modal MIC (K. pneumoniae NCTC 13368; [3]) | Modal MIC (S. aureus (MRSA) 1199B; [3]) | Modal MIC [1, 3] | Modal MIC (S. aureus (MRSA) USA300; [3]) | Modal MIC50 (C. auris TDG 1912; [5]) | Modal MIC90 (C. auris TDG 1912; [6]) | Modal MIC50 (C. albicans NCPF 3281; [7]) | Modal MIC90 (C. albicans NCPF 3281; [8]) | Modal MIC50 (C. glabrata NCPF 8018; [7]) | Modal MIC90 (C. glabrata NCPF 8018; [8]) | Modal MIC50 (C. krusei NCPF 3876; [7]) | Modal MIC90 (C. krusei NCPF 3876; [8]) | Modal MIC50 [2, 7] | Modal MIC90 [2, 8]
> 63.8 µM: Modal MIC (E. coli LEC001; shown in µM) | Modal MIC (E. coli NCTC 12923; shown in µM) | Modal MIC (P. aeruginosa NCTC 13437; shown in µM) | Modal MIC (A. baumannii ATCC 17978; shown in µM) | Modal MIC (A. baumannii AYE; shown in µM) | Modal MIC (K. pneumoniae M6; shown in µM) | Modal MIC (K. pneumoniae NCTC 13368; shown in µM) | Modal MIC (S. aureus (MRSA) 1199B; shown in µM) | Modal MIC ([1]; shown in µM) | Modal MIC (S. aureus (MRSA) USA300; shown in µM) | Modal MIC50 (C. auris TDG 1912; shown in µM) | Modal MIC90 (C. auris TDG 1912; shown in µM) | Modal MIC50 (C. albicans NCPF 3281; shown in µM) | Modal MIC90 (C. albicans NCPF 3281; shown in µM) | Modal MIC50 (C. glabrata NCPF 8018; shown in µM) | Modal MIC90 (C. glabrata NCPF 8018; shown in µM) | Modal MIC50 (C. krusei NCPF 3876; shown in µM) | Modal MIC90 (C. krusei NCPF 3876; shown in µM) | Modal MIC50 ([2]; shown in µM) | Modal MIC90 ([2]; shown in µM)
